# Values of other authors as cited in patent US5441941A, “1,2-dihydroellipticines with activity against CNS specific cancer” (The United States of America as represented by the …, priority 1993, dated 1995).
# Where two headings read alike, the source gives them in different places.
# Legend:
# [1] = system: mouse lymphoid leukemia L-1210; settings: cited from earlier work
# mammary cancer = settings: in vivo; cited from earlier work
# P388 = settings: cited from earlier work
# B16 melanoma = settings: cited from earlier work
# colon carcinoma = settings: cited from earlier work
# M5076 reticulosarcoma = settings: cited from earlier work
# Sarcoma 180 (solid) = settings: in vivo; cited from earlier work
# SF126 = settings: human glioma line; cited from earlier work
# SF375 = settings: human glioma line; cited from earlier work
# SF407 = settings: human glioma line; cited from earlier work
smiles,measurement,setting,value
"Cc1c2ccncc2c(C)c2c1[nH]c1ccc(O)cc12 [9-hydroxyellipticine, 9-hydroxy-5,11-dimethyl-(6H) -pyrido [4,3-b] carbazole]",antitumor activity,[1]; mouse L-1210 leukemia,considerably high antitumor properties
"Cc1c2cc[n+](C)cc2c(C)c2c1[nH]c1ccc(O)cc12 [Celiptium, 2-methyl-9-hydroxyellipticinium acetate]",effect against mammary cancer,mammary cancer,effective against mammary cancer
"CCN(CC)CC[n+]1ccc2c(C)c3[nH]c4ccc(O)cc4c3c(C)c2c1 [datelliptium, 2-[(2-diethylamino)ethyl]-9-hydroxyellipticinium]",antitumor activity,"[1]; mouse, in vivo",in vivo activity
same,in vivo activity,P388,in vivo activity
same,in vivo activity,B16 melanoma,in vivo activity
same,in vivo activity,colon carcinoma,in vivo activity
same,in vivo activity,M5076 reticulosarcoma,in vivo activity
"Cc1c2ccncc2c(C)c2c1[nH]c1ccccc12 [ellipticine, 5, 11-dimethyl-6H-pyrido [4,3-b] carbazole]",antitumor activity,[1]; mouse L-1210 leukemia,effective against the tumor of animals
same,effect against tumor of animals,Sarcoma 180 (solid),effective against the tumor of animals
Cc1c2cc[n+](C)cc2c(C)c2c1[nH]c1ccc(O)cc12 [elliptinium],in vitro activity,SF126,in vitro activity
same,in vitro activity,SF375,in vitro activity
same,in vitro activity,SF407,in vitro activity
